# Data published in article PMC11995724, “Antibiotic target discovery by integrated phenotypic and activity-based profiling of electrophilic fragments” (Cell chemical biology, 2025).
# Structures can show the parent of a compound that is named as a salt.
# Assay: in vitro
# Settings: human, hek293t cells
row,Compound,"viability at 48 h, 25 µM [%]"
1,"C=CC(=O)N1CCC(C(=O)Nc2ccc(CC)cc2)CC1 [3-J12, N-(4-ethylphenyl)-1-(prop-2-enoyl)piperidine-4-carboxamide]",85.6
2,"C=CC(=O)N1C2CCCC1CC1(C2)NC(=O)NC1=O (stereo not drawn) [2-K06, 9-(prop-2-enoyl)-9-azaspiro[bicyclo[3.3.1]nonane-3,4'-imidazolidine]-2',5'-dione]",89.2
3,"CC(Cl)C(=O)N(c1ccccc1)C1CCOC1 (stereo not drawn) [7-G14, 2-chloro-N-(oxolan-3-yl)-N-phenylpropanamide]",64.4
4,"N#CC(=Cc1coc2ccccc2c1=O)C(=O)NCCc1ccccc1 [9-J10, 2-cyano-3-(4-oxo-4H-chromen-3-yl)-N-(2-phenylethyl)prop-2-enamide]",107
5,"O=C(CCl)NCCc1nc2ccccc2s1 [6-K20, N-[2-(1,3-benzothiazol-2-yl)ethyl]-2-chloroacetamide]",98
6,"O=C(CCl)Nc1nc(-c2ccccc2)cs1 [4-L04, 2-chloro-N-(4-phenyl-1,3-thiazol-2-yl)acetamide]",-0.0639
7,"C=CC(=O)NCc1nc(C(=O)O)c(C)s1 [1-K03, 5-methyl-2-[(prop-2-enamido)methyl]-1,3-thiazole-4-carboxylic acid]",80.8
8,"COc1ccc(S(=O)(=O)N2CCSSCC2)cc1C [10-D11, 5-(4-methoxy-3-methylbenzenesulfonyl)-1,2,5-dithiazepane]",105
9,"N#CC(=Cc1cccc(F)c1)C(=O)Nc1cc(Cl)ccc1Cl [9-P03, 2-cyano-N-(2,5-dichlorophenyl)-3-(3-fluorophenyl)prop-2-enamide]",109
10,"CCCCNC(=O)C(C#N)=Cc1c(Cl)cccc1Cl [9-J11, N-butyl-2-cyano-3-(2,6-dichlorophenyl)prop-2-enamide]",25.1
11,"O=C(CCl)Nc1ccccc1C(=O)Nc1ccc(F)cc1 [6-D12, 2-(2-chloroacetamido)-N-(4-fluorophenyl)benzamide]",0.805
12,"O=C(CCl)NC1CCCOc2c(F)cccc21 (stereo not drawn) [7-B14, 2-chloro-N-(9-fluoro-2,3,4,5-tetrahydro-1-benzoxepin-5-yl)acetamide]",0.886
13,"C=CC(=O)NCCc1c(C)oc2ccccc12 [1-N07, N-[2-(2-methyl-1-benzofuran-3-yl)ethyl]prop-2-enamide]",119
14,"CC(Cl)C(=O)c1ccc(Cl)cc1 (stereo not drawn) [10-O04, 2-chloro-1-(4-chlorophenyl)propan-1-one]",106
15,"C=CC(=O)NCCNC(=O)[C@@]12CC[C@@](C)(C(=O)O1)C2(C)C [2-J18, N-(2-{[(1S,4R)-4,7,7-trimethyl-3-oxo-2-oxabicyclo[2.2.1]heptan-1-yl]formamido}ethyl)prop-2-enamide]",52.8
16,"Cc1ccc(Cl)c(NC(=O)CCl)c1Cl [4-D10, 2-chloro-N-(2,6-dichloro-3-methylphenyl)acetamide]",1.7
17,"CC(C)(C)C1CCc2c(sc(NC(=O)CCl)c2C#N)C1 (stereo not drawn) [5-E17, N-(6-tert-butyl-3-cyano-4,5,6,7-tetrahydro-1-benzothiophen-2-yl)-2-chloroacetamide]",0.117
18,"CCN(c1ccc(NC(=O)CCl)cc1)C(C)C [5-J08, 2-chloro-N-{4-[ethyl(propan-2-yl)amino]phenyl}acetamide hydrochloride]",3.48
19,"N#CC(=Cc1ccccc1OC(F)F)C(=O)Nc1ccccc1F [8-K21, 2-cyano-3-[2-(difluoromethoxy)phenyl]-N-(2-fluorophenyl)prop-2-enamide]",82.5
20,"N#CC1=C(N2CCOCC2)SC(c2ccc([N+](=O)[O-])cc2)NC1=O (stereo not drawn) [9-D08, 6-(morpholin-4-yl)-2-(4-nitrophenyl)-4-oxo-3,4-dihydro-2H-1,3-thiazine-5-carbonitrile]",112
21,"N#Cc1ccc(N2C(=O)C=CC2=O)cc1 [10-B09, 4-(2,5-dioxo-2,5-dihydro-1H-pyrrol-1-yl)benzonitrile]",82.1
